This experiment deals with substance P induced relaxation of the pig coronary arteries. As to the kind of experiment: Antagonism of substance P induced relaxation of the pig coronary arteries. Type of experiment: cell-based. The settings on record: response to 10^-9 M substance P, 30 min incubation; for inhibition at 0.003 µM / inhibition at 0.03 µM: Sus scrofa, 0.5 h; for inhibition at 0.003 µM: test compound 3 × 10^-9; for inhibition at 0.03 µM / % inhibition: test compound 3 × 10^-8. The procedure: Antagonism of substance P induced relaxation of the pig coronary arteries
Segments of coronary arteries taken from pigs (killed by injection of an overdose of sodium pentobarbital) were inverted and mounted for recording of isometric tension in organ baths (volume 20 ml) with the endothelium at the outside. The preparations were bathed in Krebs - Henseleit solution. The solution was kept at 37° C. and gassed with a mixture of O2 /CO2 (95/5). After stabilisation of the preparations, prostaglandin F2α (10^-5 M) was administered to induce a contraction. This was repeated until contractile responses became stable. Then prostaglandin F2α was again administered and substance P (3×10^-10 M and 10^-9 M cumulatively) was added. […] After washing away the agonists, a known concentration of a compound of formula (I) was added. After an incubation period of 30 minutes, prostaglandin F2α (10^-5 M) and the same concentrations of substance P as described above were again administered in the presence of the compound to be tested.

Here are results for 16 molecules from US6110939A, “(Benzimidazolyl- and imidazopyridinyl) containing 1-(1,2-disubstituted piperidinyl) derivatives” (Janssen Pharmaceutica N.V., priority 1995, dated 2000).

In general, inhibition refers to the share of the control response that was lost under treatment. Broadly, the % inhibition is the share of the control response that was lost under treatment. A low value points to a weak effect.

Molecule `Cc1ncc(Cn2c(NC3CCN([C@@H]4CCN(C(=O)c5cccs5)[C@@H](Cc5ccccc5)C4)CC3)nc3ccccc32)o1` (relative stereo) [Compound 56] had an inhibition at 0.003 µM of 8.7%.

For the molecule `Cc1ncc(Cn2c(NC3CCN([C@@H]4CCN(C(=O)c5sc(C)nc5C)[C@H](Cc5ccccc5)C4)CC3)nc3ccccc32)o1` (relative stereo) [Compound 65], the inhibition at 0.003 µM stood at 9.7%.

Molecule `CCOCCn1c(N[C@@H]2CCN(C(=O)c3cc(C(F)(F)F)ccc3C(F)(F)F)[C@@H](Cc3ccc(Cl)cc3)C2)nc2ccccc21` (relative stereo) [Compound 144] displayed an inhibition at 0.003 µM of 88.4%.

In turn, `CCOCCn1c(N[C@@H]2CCN(C(=O)c3cc(C(F)(F)F)ccc3C(F)(F)F)[C@H](Cc3ccc(Cl)cc3)C2)nc2ccccc21` (relative stereo) [Compound 145] registered an inhibition at 0.003 µM of 92.2%.

For the molecule `CCOCCn1c(N[C@@H]2CCN(C(=O)c3cc(C(F)(F)F)cc(C(F)(F)F)c3)[C@H](Cc3ccc(C(F)(F)F)cc3)C2)nc2ccccc21` (relative stereo) [Compound 146], the inhibition at 0.003 µM was 51.8%.

`CCOCCn1c(N[C@@H]2CCN(C(=O)c3cc(C(F)(F)F)cc(C(F)(F)F)c3)[C@@H](Cc3ccc(F)c(F)c3)C2)nc2ccccc21` (relative stereo) [Compound 147]: the inhibition at 0.03 µM came out at 95.6%.

`CCOCCn1c(N[C@@H]2CCN(C(=O)c3cc(C(F)(F)F)cc(C(F)(F)F)c3)[C@H](Cc3ccc(F)c(F)c3)C2)nc2ccccc21` (relative stereo) [Compound 148] showed an inhibition at 0.03 µM of 100%.

Regarding `CCOCCn1c(NC2CCN(C3CCN(C(=O)c4cc(C(F)(F)F)cc(C(F)(F)F)c4)C(Cc4ccccc4)C3)C(Cc3ccccc3)C2)nc2ccccc21` (stereo not drawn) [Compound 13, 2α,4α-trans-1-[3,5-bis(trifluoromethyl)benzoyl]-4-[4-[[1-(2-ethoxyethyl)-1H-benzimidazol-2-yl]amino]-2-(phenylmethyl)-1-piperidinyl]-2-(phenylmethyl)piperidine], the “% inhibition” value is listed as 19.9%.

For `CCOCCn1c(NC2CCN(C3CCN(C(=O)c4cc(C(F)(F)F)cc(C(F)(F)F)c4)C(Cc4ccccc4)C3)C(Cc3ccccc3)C2)nc2ccccc21` (stereo not drawn) [Compound 14, 2α,4β-trans-1-[3,5-bis(trifluoromethyl)benzoyl]-4-[4-[[1-(2-ethoxyethyl)-1H-benzimidazol-2-yl]amino]-2-(phenylmethyl)-1-piperidinyl]-2-(phenylmethyl)piperidine], the “% inhibition” value was found to be 53.3%.

As to `Cc1ccc(Cn2c(C(O)C3CCN([C@H]4CCN(C(=O)c5cc(C(F)(F)F)cc(C(F)(F)F)c5)[C@@H](Cc5ccccc5)C4)CC3)nc3ccccc32)o1` (stereo partly shown) [Compound 21], 0.03 µM produced 95.8% inhibition.

`Cc1ccc(Cn2c(C(O)C3CCN([C@H]4CCN(C(=O)c5cc(C(F)(F)F)cc(C(F)(F)F)c5)[C@@H](Cc5ccccc5)C4)CC3)nc3ccccc32)o1` (stereo partly shown) [Compound 22] registered an inhibition at 0.003 µM of 89.4%.

Consider `Cc1ccc(Cn2c(C(O)C3CCN(C4CCN(C(=O)c5cc(C(F)(F)F)cc(C(F)(F)F)c5)C(Cc5ccccc5)C4)CC3)nc3ccccc32)o1` (stereo not shown) [Compound 23], for which at 0.003 µM the inhibition was 94.3%.

Molecule `Cc1ccc(Cn2c(NC3CCN([C@@H]4CCN(C(=O)c5cc(C(F)(F)F)cc(C(F)(F)F)c5)[C@H](Cc5ccccc5)C4)C3)nc3cccnc32)o1` (stereo partly shown) [Compound 30] showed an inhibition at 0.03 µM of 87.5%.

Consider `Cc1ccc(Cn2c(NC3CCN([C@@H]4CCN(C(=O)c5cc(C(F)(F)F)cc(C(F)(F)F)c5)[C@@H](Cc5ccccc5)C4)C3)nc3cccnc32)o1` (stereo partly shown) [Compound 31], for which testing at 0.003 µM gave an inhibition of 90.6%.

`CCOCCn1c(NC2CCCN(C(=O)c3cc(C(F)(F)F)cc(C(F)(F)F)c3)C(Cc3ccccc3)C2)nc2ccccc21` (stereo not shown) [Compound 149]: the inhibition at 0.03 µM is 12.7%.

`CCOCCn1c(NC2CCC(Cc3ccccc3)N(C(=O)c3cc(C(F)(F)F)cc(C(F)(F)F)c3)CC2)nc2ccccc21` (stereo not shown) [Compound 150] had an inhibition at 0.03 µM of 98.1%.
